Values of other authors, collected in paper PMC4424193 (European journal of drug metabolism and pharmacokinetics, 2014).
Read-outs that look alike come from different tables or passages of the source. Values belong to the molecule of their own block, whether it stands above or below them.

Key:
FAK = conditions: binding studies; ref Kurenova et al. 2013
[1] = rats, single intragastric 50 mg/kg in 2% starch suspension; ref Kaverina (1983)
[2] = ref Dirikolu (2009); for Cmax: horse serum
[3] = man, single oral 50 mg dose, 24 hr urine collections; ref Chung (1994)
[4] = humans, ref Yeh et al. 1986; for Cmax: at 0.5 hrs post-dose
[5] = rat, after 24 hrs; ref Yeh 1990
[6] = CD1 mice, 44.6 mg/kg IP C4 free base, ref Thudium 2011

C4 to FAK dissociation constant (Kd) (FAK): 165 ng/mL | plasma Cmax (mean) [6]: 820 ng/mL | time of peak plasma concentration [6]: 0.67 h | T½ (mice, 44.6 mg/kg free base IV dose, ref Thudium (2011)): 49.8 ± 20.4 min | 24 hr concentration (mice, 44.6 mg/kg free base, ref Thudium (2011)): 0 µg/mL | Bioavailability (mice, oral vs IP routes of administration, previously determined): 15.5% | Cmax (mouse IV, ref Thudium (2011)): 0.82 µg/mL | Cmax [1]: 0.37 µg/mL | T½ [1]: 14.9 h | serum concentration at 24 hrs (mean) [1]: 0.16 ± 0.01 µg/mL
SMILES: CN(C)CCN(Cc1ccc(Cl)cc1)c1ccccn1 [C4, N-[(4-chlorophenyl)-methyl]-N-[2-(dimethylamino)-ethyl]-pyridin-2-amine]

Cmax ([2]; IV 300 mg/horse, at 5 minutes): 280 ng/mL | Cmax ([2]; oral 300 mg/horse): 36.6 ng/mL | half-life (t½) ([2]; horse, IV 300 mg/horse): 1.67 h | detection in serum at 24 hrs ([2]; horse, either route of administration (IV, oral)): not detected | Tmax ([2]; horse, oral 300 mg/horse): 26.4 min
SMILES: COc1ccc(CN(CCN(C)C)c2ccccn2)cc1 [Pyrilamine, pyrilamine]
parent compound in urine [3]: no parent compound was observed in the urine

Cmax ([4]; 50 mg intramuscular): 105 ng/mL | t½ ([4]; 50 mg intramuscular): 2.9 ± 0.25 h | Cmax ([4]; 100 mg intramuscular): 194 ng/mL | t½ ([4]; 100 mg intramuscular): 4.4 ± 1.3 h | dose recovered unchanged in urine [5]: 2-3%
SMILES: CN(C)CCN(Cc1ccccc1)c1ccccn1 [tripelennamine]
